{
  "source": "patent US20240287130A1",
  "about": "“COMPOUND FOR ALCOHOLIC LIVER INJURY, PREPARATION METHOD, COMPOSITION, FOOD AND USE” (CHENGDU INNOHEPOREM BIOTECH CO., LTD., priority 2021, published 2024)",
  "key": {"[1]": {"tested_on": "mouse alcoholic liver injury model", "experiment": "Effect of product (a) on alcoholic liver injury (Example 6): six months alcohol feeding, then one month of intervention in normal liquid feed", "type": "in vivo, C57 mice", "conditions": "one month intervention after six months alcohol; for proportion of fat deposition in the total liver area (oil red O staining): non-intervention group 0.68, FIG. 16; for ALT level in serum: normal diet group 12.03, non-intervention group 44.84, FIG. 14", "text": "(§1) This experiment used the Lieber-DeCarli alcoholic fatty liver modeling method. Lieber-DeCarli feed was purchased from Nantong Trophic Animal Feed High-Tech Co., Ltd. The specific method is as follows: C57 mice (purchased from TROPHIC Animal Feed High-Tech Co. Ltd, China, the same below) were fed with normal solid maintenance feed, adapted to the feeding environment for at least one week, then were fed with maltodextrin diet for a week of transition, and then fed with Lieber-DeCarli feed. The alcohol concentration of Lieber-DeCarli feed was 3% in the first week, and the alcohol concentration was increased by 0.5% every week until reaching an alcohol concentration of 5%. The animals were continued to be fed with feed containing 5% alcohol. C57 mice were fed with Lieber-DeCarli feed for 12 weeks to establish a model of alcoholic liver injury.\n30 C57 mice were subjected to adaptive feeding for 1 week, and then randomly divided into a normal diet group (n=6) and an alcohol diet group (n=24) according to body weight. In the alcohol diet group, a mouse alcoholic liver injury model was established by feeding mice with Lieber-DeCarli feed for 24 weeks according to the method of Example 3. After the modeling was completed, the mice were randomly divided into 4 groups, namely the non-intervention group (EtOH(6m)+Normal(1m), n=6), the zinc glutathione intervention group (EtOH(6m)+Zn(GSH)2(1m), n=6), the zinc intervention group (EtOH(6m)+Zn(1m), n=6), and the glutathione intervention group (EtOH(6m)+GSH(1m), n=6). The remaining normal diet group was named the normal group (Normal (7m) group, n=5).\nDifferent intervention substances were added to the normal liquid feed for 1 month. The feed of the zinc glutathione intervention group was added with Zn(GSH)2SO4 at an amount of 1 mg Zn per 10 mL of feed (GSH was 9.35 mg/10 mL) for one month of intervention. The feed of the zinc intervention group was added with ZnSO4 at an amount of 1 mg Zn per 10 mL of feed. The feed of the glutathione intervention group was added with glutathione at an amount of 9.35 mg GSH per 10 mL of feed.\n(§2) At the end of the experiment in each group, the animals were weighed, blood was collected, and materials were collected.\n(§3) Blood collection: orbital blood collection was performed.\n(§4) Liver: The animals were killed by cervical dislocation. The mice were cut along the midline of the abdomen to expose the abdomen and the liver was then peeled off. The intact liver was peeled off and separated into the different lobes.\n(§5) Tissue distribution of each lobe of the liver: The left lobe was separated into three sections and the right lobe was separated into two sections. The first sections of the left lobe and right lobe were used to make pathological sections for histological examination. The second sections of the left lobe and right lobe were used for zinc measurement. The remaining third section of the left lobe was stored in liquid nitrogen for analysis such as molecular detection.\nBiochemical analysis of serum: Alanine aminotransferase (ALT) in blood samples was analyzed using a colorimetric method.\nOil red O staining of frozen sections: Frozen sections were stained with ORO stain solution and the nuclei were counterstained with hematoxylin. […] The area of the ORO positive area was measured using Image Pro-Plus 6.0 software, and the ratio of the positive area to the total area was calculated.\n(§6) Data processing and statistical analysis: All experimental data herein were analyzed using GraphPad Prime 6 statistical analysis software. Student t test was used for single factor analysis between two groups, and p<0.05 was considered to be statistically different.\nDetermination method: After blood was collected, the collected whole blood was placed at 25° C. for 30 minutes. After the blood coagulated, it was centrifuged at 3500 rpm for 15 minutes to separate the serum, and various parameters were measured timely. […]"}, "[2]": {"tested_on": "mouse alcoholic liver injury model", "experiment": "Effect of product (a) on alcoholic liver injury (Example 4): Lieber-DeCarli alcohol diet, three months of intervention", "type": "in vivo, C57 mice", "text": "as §1\n30 C57 mice were subjected to adaptive feeding for 1 week, and then randomly divided into a normal diet group (n=9) and an alcohol diet group (n=21) according to body weight. In the alcohol diet group, a mouse alcoholic liver injury model was established by feeding mice with Lieber-DeCarli feed for 12 weeks according to the method of Example 3. After the modeling was completed, the mice were randomly divided into 3 groups, one of which was the pre-intervention group (EtOH (3m), n=3) (meanwhile, 4 animals were randomly selected from the normal diet group to be control of the pre-intervention group (Normal (3m) group, n=4). The pre-intervention group and the pre-intervention control group were collected immediately after the modeling was completed. The other two groups were the non-intervention group (EtOH (6m), n=10), and the zinc/glutathione intervention group (EtOH(6m)/Zn(GSH)2(3m), n=8) respectively. The remaining normal diet group was named the normal group (Normal (6m) group, n=5).\nZn(GSH)2·SO4 was added to the daily Lieber-DeCarli alcohol diet at the amount of 1 mg Zn/10 mL of feed for three months of invention.\nas §2, §3\nas §4, with “lobes. The left lobe was separated into three sections using a blade, and the right lobe was separated into two sections.” for “lobes.”\nas §5, with “Other lobes were” for “The remaining third section of the left lobe was”, “detection. […]” for “detection.”\nMeasurement of zinc concentration: The zinc concentration in liver tissue was determined using atomic absorption spectrometry (atomic absorption spectrometer: ICE3500, Thermo Company).\nas §6"}, "[3]": {"conditions": "EtOH(6 m)/Zn(GSH)2 group, end of experiment"}},
  "data": [
    {"molecule": "N[C@@H](CCC(=O)N[C@@H](CS)C(=O)NCC(=O)O)C(=O)O", "note": "[glutathione, N-(N-L-γ-glutamyl-L-cysteinyl)-glycine]", "values": [
      {"measurement": "ALT level relative to the zinc glutathione intervention group", "setting": "[1]", "value": "about 2 times"},
      {"measurement": "proportion of fat deposition in the total liver area (oil red O staining)", "setting": "[1]", "value": 0.62},
      {"measurement": "ALT level in serum", "setting": "[1]", "value": 22.86}
    ]},
    {"molecule": "O=S(=O)([O-])[O-].[Zn+2]", "note": "[zinc, ZnSO4]", "values": [
      {"measurement": "ALT level relative to the zinc glutathione intervention group", "setting": "[1]", "value": "about 2 times"},
      {"measurement": "proportion of fat deposition in the total liver area (oil red O staining)", "setting": "[1]", "value": 0.36},
      {"measurement": "ALT level in serum", "setting": "[1]", "value": 22.03}
    ]},
    {"molecule": "[Zn^2+(L-GSH)2]·SO4^2− [Zn(GSH)2·SO4]", "values": [
      {"measurement": "proportion of fat deposition in the total liver area (oil red O staining)", "setting": "[1]", "value": 0.21},
      {"measurement": "ALT level in serum", "setting": "[1]", "value": 8.96},
      {"measurement": "fat deposition (oil red O staining of liver)", "setting": "[2]; EtOH(6m)/Zn(GSH)2(3m) vs non-intervention group, FIG. 9", "value": "significantly improved"},
      {"measurement": "Liver weight", "setting": "[2]; [3]", "value": "1.26 ± 0.25", "unit": "g"},
      {"measurement": "Liver weight/final body weight", "setting": "[2]; [3]", "value": "5.62 ± 0.80", "unit": "%"},
      {"measurement": "Final body weight", "setting": "[2]; EtOH(6 m)/Zn(GSH)2 group, end of experiment, average", "value": "22.53 ± 1.67", "unit": "g"},
      {"measurement": "survival rate", "setting": "[2]; alcohol-fed mice, intervention after modeling, 1 mg Zn/10 mL feed, FIG. 8", "value": "significantly increased"},
      {"measurement": "zinc content in the liver", "setting": "[2]; atomic absorption spectrometry, intervention group, FIG. 12", "value": "significantly increased"},
      {"measurement": "area of fat deposition (percentage of fat deposition in the total liver area)", "setting": "[2]; oil red O staining, vs non-intervention group, FIG. 10", "value": "significantly reduced"},
      {"measurement": "vesicular steatosis (HE staining)", "setting": "[2]; vs non-intervention group, FIG. 11", "value": "significantly reduced"}
    ]}
  ]
}
